Laboratory results from US6972288B1, “4-amino-quinazoline and quinoline derivatives having an inhibitory effect on signal transduction mediated by tyrosine kinases” (Boehringer Ingelheim Pharma KG, priority 1999, dated 2005).

What was measured:
human EGF-R = target: T1, human EGF-R (Homo sapiens, UniProt P00533); assay: Inhibition of EGF-dependent proliferation of F/L-HERc cells (Cell Titer 96 AQueous assay); assay type: cell-based; settings: F/L-HERc cells (murine IL-3-dependent line expressing human EGF-R), stimulated with EGF 20 ng/ml, 48 hours at 37° C.
T1 construct: expressed in transfected cells; host or cells: F/L-HERc cells, derived from the murine IL-3-dependent line FDC-P1 ('FDC-PI' [sic]); retroviral vector LXSN, packaging line GP+E86
Description: A cell line of murine origin dependent on interleukin-3 (IL-3) which was genetically modified to express functional human EGF-R was used here. The proliferation of these cells known as F/L-HERc can therefore be stimulated either by murine IL-3 or by EGF (cf. von Rüden, T. et al. in EMBO J. 7, 2749-2756 (1988) and Pierce, J. H. et al. in Science 239. 628-631 (1988)).
The starting material used for the F/L-HERc cells was the cell line FDC-PI, the production of which has been described by Dexter, T. M. et al, in J. Exp. Med. 152, 1036-1047 (1980). alternatively, however, other growth-factor-dependent cells may also be used (cf. for example Pierce, J. H. et al. in Science 239, 628-631 (1988), Shibuya, H. et al. in Cell 70, 57-67 (1992) and alexander, W. S. et al. in EMBO J. 10, 3683-3691 (1991)). For expressing the human EGF-R cDNA (cf. Ullrich, A. et al. in Nature 309, 418-425 (1984)) recombinant retroviruses were used as described by von Rüden, T. et al., EMBO J. 7, 2749-2756 (1988), except that the retroviral vector LXSN (cf. Miller, A. D. et al. in BioTechniques 1, 980-990 (1989)) was used for the expression of the EGF-R cDNA and the line GP+E86 (cf, Markowitz, D, et al. in J. Virol. 62, 1120-1124 (1988)) was used as the packaging cell.
The test was performed as follows: • F/L-HERC cells were cultivated in RPMI/1640 medium (BioWhittaker), supplemented with 10% foetal calf serum (FCS, Boehringer Mannheim). 2 mM glutamine (BioWhittaker), standard antibiotics and 20 ng/ml of human EGF (Promega), at 37° C. and 5% CO2. In order to investigate the inhibitory activity of the compounds according to the invention, 1.5×10^4 cells per well were cultivated in triplicate in 96-well plates in the above medium ([…]), the cell proliferation being stimulated with either EGF (20 ng/ml) or murine IL-3. The IL-3 used was obtained from culture supernatants of the cell line X63/0 mIL-3 (cf. Karasuyama, 4. et al. in Eur. J. Immunol. 18, 97-104 (19881). The compounds according to the invention were dissolved in 100% dimethylsulphoxide (DMSO) and added to the cultures in various dilutions, the maximum DMSO concentration being 1%. The cultures were incubated for 48 hours at 37° C.
In order to determine the inhibitory activity of the compounds according to the invention the relative cell number was measured in O.D. units using the Cell Titer 96™ AQueous Non-Radioactive Cell Proliferation Assay (Promega). The relative cell number was calculated as a percentage of the control (F/LHERc cells without inhibitor) and the concentration of active substance which inhibits the proliferation of the cells by 50% (IC50) was derived therefrom.

T1 sequence (P00533 25-1210): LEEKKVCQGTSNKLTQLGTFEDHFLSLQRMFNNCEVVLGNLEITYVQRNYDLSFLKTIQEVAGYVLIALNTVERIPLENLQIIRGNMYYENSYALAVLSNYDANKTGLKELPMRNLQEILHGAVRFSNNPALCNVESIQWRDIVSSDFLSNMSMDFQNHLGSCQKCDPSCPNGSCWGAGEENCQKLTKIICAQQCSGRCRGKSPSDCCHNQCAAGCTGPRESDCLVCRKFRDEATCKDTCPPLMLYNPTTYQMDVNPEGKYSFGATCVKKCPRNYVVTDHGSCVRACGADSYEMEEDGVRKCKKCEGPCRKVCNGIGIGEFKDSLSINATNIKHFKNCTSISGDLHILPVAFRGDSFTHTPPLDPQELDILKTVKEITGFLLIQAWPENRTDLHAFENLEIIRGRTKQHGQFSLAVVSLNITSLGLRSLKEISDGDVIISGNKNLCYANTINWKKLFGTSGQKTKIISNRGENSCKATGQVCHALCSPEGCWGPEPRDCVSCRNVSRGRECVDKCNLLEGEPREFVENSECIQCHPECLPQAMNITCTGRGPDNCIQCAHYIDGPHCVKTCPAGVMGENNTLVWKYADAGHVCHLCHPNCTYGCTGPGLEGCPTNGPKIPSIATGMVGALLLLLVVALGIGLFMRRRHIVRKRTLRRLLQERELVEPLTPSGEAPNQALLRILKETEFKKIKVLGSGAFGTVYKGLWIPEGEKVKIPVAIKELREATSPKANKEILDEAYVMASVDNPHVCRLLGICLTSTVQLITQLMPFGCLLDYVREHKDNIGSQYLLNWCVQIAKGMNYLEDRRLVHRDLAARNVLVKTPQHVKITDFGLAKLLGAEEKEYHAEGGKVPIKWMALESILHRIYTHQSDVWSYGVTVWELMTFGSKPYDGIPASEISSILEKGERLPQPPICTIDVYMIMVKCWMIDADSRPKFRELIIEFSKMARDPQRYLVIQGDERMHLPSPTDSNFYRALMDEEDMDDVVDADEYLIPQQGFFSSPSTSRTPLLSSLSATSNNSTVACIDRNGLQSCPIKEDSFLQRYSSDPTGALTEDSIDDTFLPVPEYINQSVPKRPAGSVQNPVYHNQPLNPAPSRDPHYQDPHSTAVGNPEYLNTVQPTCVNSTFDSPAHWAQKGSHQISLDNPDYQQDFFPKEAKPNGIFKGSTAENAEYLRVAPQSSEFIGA

melting point [°C]	IC50 (human EGF-R) [nM]	SMILES
80 to 85	2.6	C=CC(=O)Nc1cc2c(Nc3cccc(Br)c3)ncnc2cc1OCCCN1CCN(CC(=O)OCC)CC1 [Example 1, 4-[(3-Bromophenyl)amino]-7-(3-{4-[(ethoxycarbonyl)methyl]-piperazin-1-yl)propyloxy)-6-[(vinylcarbonyl)amino]-quinazoline]
182 to 183	5.2	CCOC(=O)CN(C)CC=CC(=O)Nc1ccc2ncnc(Nc3cccc(Br)c3)c2c1 [Example 2, 4-[(3-Bromophenyl)amino]-6-[(4-{N-[(ethoxycarbonyl)methyl]-N-methylamino}-1-oxo-2-buten-1-yl)-amino]-quinazoline]
90 to 92	74	CCOC(=O)CN(CC=CC(=O)Nc1cc2c(Nc3ccc(F)c(Cl)c3)ncnc2cc1OCC1CC1)CCOC(C)=O [Example 11, 4-[(3-chloro-4-fluorophenyl)amino]-6-[(4-(N-[(ethoxycarbonyl)-methyl]-N-[2-(methylcarbonyloxy)ethyl]amino]-1-oxo-2-buten-1-yl)amino]-7-cyclopropylmethoxy-quinazoline]
